From paper PMC11504387, “Synthesis and Biological Activity Assessment of 2-Styrylbenzothiazoles as Potential Multifunctional Therapeutic Agents” (Antioxidants, 2024)

Key:
[1] = Ferric reducing antioxidant power (FRAP) test; format: biochemical; conditions: Trolox equivalents; mean ± SD
Description: The FRAP test, based on a colorimetric reaction, can assess the ability of a sample to reduce ferric ions to ferrous ions when complexed with 2,4,6-trispiridyl-s-triazine (TPTZ). The FRAP solution consisted of 0.1 M acetate buffer (pH 3.6), 10 mmol/L of TPTZ in 40 mM HCl and a 20 mM solution of FeCl3, in a 10:1:1 ratio. A 1.9 mL volume of the FRAP solution was incubated with 0.1 mL of the sample solution at 37 °C for 10 min. The absorbance was then read with a UV-Vis spectrophotometer at a wavelength of 593 nm, which corresponds to the maximum absorbance peak of the Fe^2+-TPTZ complex. Trolox® was used as a standard, and ferulic acid was used as positive control, and the results are expressed as µmol TE/g.

[2] = molecular target: T1, 5-LO in A23187-stimulated human PMNL (Homo sapiens, UniProt P09917); assay: 5-Lipoxygenase inhibition in a cell-based assay (PMNL); conditions: for remaining activity at 10 µM: PMNL, % relative to vehicle (DMSO), read-out: 5-LO Residual Activity (PMNL, 10 µM); for IC50: activated PMNL
T1 construct: Freshly isolated PMNL (1 × 10^6 cells/mL) in PBS buffer pH 7.4; endogenous in cells; host or cells: primary human PMNL (neutrophils) isolated from blood
T1 sequence (P09917 1-674): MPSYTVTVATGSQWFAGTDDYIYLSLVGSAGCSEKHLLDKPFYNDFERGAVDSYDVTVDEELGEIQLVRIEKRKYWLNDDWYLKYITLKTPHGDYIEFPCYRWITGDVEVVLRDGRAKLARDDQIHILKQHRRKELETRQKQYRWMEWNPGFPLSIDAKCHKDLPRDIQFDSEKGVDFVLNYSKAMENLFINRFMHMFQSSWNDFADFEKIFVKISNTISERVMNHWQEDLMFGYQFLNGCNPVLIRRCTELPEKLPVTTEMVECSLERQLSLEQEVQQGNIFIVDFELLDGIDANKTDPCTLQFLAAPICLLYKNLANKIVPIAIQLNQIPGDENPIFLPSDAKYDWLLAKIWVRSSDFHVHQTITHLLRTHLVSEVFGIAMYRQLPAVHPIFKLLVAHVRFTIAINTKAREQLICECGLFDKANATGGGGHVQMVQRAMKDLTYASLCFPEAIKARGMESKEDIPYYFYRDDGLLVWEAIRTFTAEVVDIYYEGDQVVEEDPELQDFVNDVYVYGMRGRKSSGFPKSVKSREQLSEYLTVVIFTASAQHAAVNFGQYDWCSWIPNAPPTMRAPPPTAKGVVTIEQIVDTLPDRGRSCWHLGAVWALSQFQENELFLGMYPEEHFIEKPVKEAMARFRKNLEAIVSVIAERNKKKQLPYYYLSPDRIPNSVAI
Description: Following blood density centrifugation and cell population separation, PMNL was recovered from the pellet after hypotonic lysis of erythrocytes. Freshly isolated PMNL (1 × 10^6 cells/mL) in PBS buffer pH 7.4 with glucose (1 mg/mL) and CaCl2 (1 mM) was pre-incubated with the test compounds for 10 min at 37 °C. Then, 5-lipoxygenase (5-LO) product formation was started by addition of 2.5 μM Ca^2+-ionophore A23187 plus 20 μM arachidonic acid. The reaction was stopped after 10 min at 37 °C with 1 mL of ice-cold methanol containing 200 ng PGB1 as internal standard. Major 5-LO products (LTB4, trans-LTB4, epi-trans-LTB4, and 5-HETE) were extracted by SPE using Sep-Pak C18 35 cc Vac Cartridges (Waters, Milford, MA, USA) and analysed by UPLC-MS/MS as described by Pein et al..

[3] = molecular target: T2, Human recombinant 5-LO (Homo sapiens, UniProt P09917); assay: 5-Lipoxygenase inhibition in a cell-free assay; format: biochemical; conditions: for remaining activity at 10 µM: % relative to vehicle (DMSO), read-out: 5-LO Residual Activity (Cell-Free, 10 µM); for IC50: isolated enzyme
T2 construct: made in house
T2 sequence (P09917 1-674): T1 sequence (P09917 1-674)
Description: Human recombinant 5-LO was expressed and isolated as described before, and immediately used for activity assays after isolation. The 5-LO (0.5 µg, in 1 mL PBS pH 7.4 containing 1 mM EDTA) was pre-incubated with the test compounds for 10 min at 4 °C and pre-warmed for 30 s at 37 °C. 5-LO product formation was initiated by sequential addition of 1 mM CaCl2 and 20 μM arachidonic acid. After 10 min at 37 °C, the reaction was terminated by addition of 1 mL ice-cold methanol containing 200 ng PGB1 as internal standard. Formed 5-LO products (trans-LTB4, epi-trans-LTB4, and 5-HETE) were extracted using Sep-Pak C18 35 cc Vac Cartridges and analysed by UPLC-MS/MS as previously described.

[4] = ORAC assay; format: biochemical; conditions: Trolox equivalents; mean ± SD
Description: The ORAC assay was performed based on the previously modified Hong procedure. The sodium salt of fluorescein (85 nM) was used as a target for free radical attack with 2,2′-azobis(2-amidinopropane) dichloride (AAPH) as a peroxyl radical generator in the final assay mixture (total volume of 0.2 mL). The test involves a calibration curve of Trolox (standard control) with different concentrations (40 to 240 μM). The compounds tested were first dissolved in DMSO:MeOH and then diluted in phosphate buffer solution pH 7.4. Fluorescence measurements were performed at 37 °C and recorded at 5-min intervals up to 30 min after the addition of AAPH. ORAC values were calculated as the difference in areas under the fluorescein quenching curves between the blank and the sample and were expressed as µmol Trolox equivalents (TE) per gram of dried sample.

Compound	remaining activity at 10 µM [2]	IC50 [2]	remaining activity at 10 µM [3]	IC50 [3]	FRAP [1]	ORAC [4]
COc1cc(/C=C/c2nc3ccccc3s2)ccc1O [BZTst6, (E)-4-(2-(benzo[d]thiazol-2-yl)vinyl)-2-methoxyphenol]	7.11 ± 4.9%	950 nM	6.84 ± 3.38%	330 nM	3262.22 ± 7.86 µmolTE/g	19,027.54 ± 46.67 µmolTE/g
C(=C\c1nc2ccccc2s1)/c1ccccc1 [BZTst1, (E)-2-styrylbenzo[d]thiazole]	48.7 ± 10.2%	–	72 ± 20.4%	–	331.15 ± 6.29 µmolTE/g	<LOQ ^b
Oc1ccc(/C=C/c2nc3ccccc3s2)cc1O [BZTst4, (E)-4-(2-(benzo[d]thiazol-2-yl)vinyl)benzene-1,2-diol]	0.79 ± 0.49%	700 nM	6.85 ± 3.72%	50 nM	5673.33 ± 86.42 µmolTE/g	<LOQ ^b

Second part, led by results:

remaining activity at 10 µM [2]	IC50 [2]	remaining activity at 10 µM [3]	IC50 [3]	Compound	FRAP [1]	ORAC [4]
22.9 ± 14.6%	2900 nM	47.3 ± 20.2%	9260 nM	Oc1ccc(/C=C/c2nc3ccccc3s2)cc1 [BZTst2, (E)-4-(2-(benzo[d]thiazol-2-yl)vinyl)phenol]	1122.44 ± 25.14 µmolTE/g	11,614.64 ± 1184.06 µmolTE/g
74 ± 25.8%	–	34.8 ± 18.4%	–	COc1ccc(/C=C/c2nc3ccccc3s2)cc1O [BZTst5, (E)-5-(2-(benzo[d]thiazol-2-yl)vinyl)-2-methoxyphenol]	788.09 ± 14.46 µmolTE/g	<LOQ ^b
75.3 ± 19.7%	–	46.7 ± 28.5%	–	COc1ccc(/C=C/c2nc3ccccc3s2)cc1 [BZTst3, (E)-2-(4-methoxystyryl)benzo[d]thiazole]	178.71 ± 8.17 µmolTE/g	1077.84 ± 98.52 µmolTE/g
